{
  "source": "patent US20200085734A1",
  "about": "“PHARMACEUTICAL DOSAGE FORMS CONTAINING TASK-I AND TASK-3 CHANNEL INHIBITORS, AND THE USE OF SAME IN BREATHING DISORDER THERAPY” (priority 2016, published 2020)",
  "system": "collapsibility of the upper airways",
  "experiment": "Animal model of obstructive sleep apnoea in the pig (collapse of the upper airways under negative pressure after nasal administration)",
  "assay_type": "in vivo, German Landrace pigs",
  "excerpt": "The effects of the formulations according to the invention of the inhibitors of TASK-1 and/or TASK-3 channels on the activation threshold of the genioglossus muscle by negative pressure and the collapsibility of the upper airways were investigated in a pig model for obstructive sleep apnoea. Using negative pressure, it is possible to induce collapse and thus obstruction of the upper airways in anaesthetized, spontaneously breathing pigs [Wirth et al., Sleep 36, 699-708 (2013)]. German Landrace pigs were used for the model. Since the nasal axis is in an almost vertical position in humans in a horizontal sleeping position, the pigs in the experiments were fixed in a sitting position (70 degrees), wherein the nose pointed upwards. After nasal administration, the formulation therefore flowed downwards over all regions of the upper airways. The pigs were anaesthetized and tracheotomized. One cannula each was inserted into the rostral and the caudal part of the trachea. Using a T connector, the rostral cannula was connected on the one hand to a device generating negative pressure and on the other hand to the caudal cannula. Using a T connector, the caudal cannula was connected to the rostral cannula and to a tube which allowed spontaneous breathing circumventing the upper airways. By appropriate closing and opening of the tubes it was thus possible for the pig to change from normal nasal breathing to breathing via the caudal cannula during the time when the upper airways were isolated and were connected to the device for generating negative pressure. The muscle activity of the Musculus genioglossus was recorded by electromyogram (EMG). At certain points in time, the collapsibility of the upper airways was tested by having the pig breathe via the caudal cannula and applying negative pressures of −50, −100 and −150 mbar (corresponding to −50, −100 and −150 cm water column (cm H2O)) to the upper airways. This caused the upper airways to collapse, which manifested itself in an interruption of the airflow and a pressure drop in the tube system. This test was conducted prior to administration of the test substance and at certain intervals after administration of the test substance. An appropriately effective test substance could prevent this collapse of the airways in the inspiratory phase. After changeover from nasal breathing to breathing via the caudal cannula, it was not possible to measure any EMG activity of the Musculus genioglossus in the anaesthetized pig. As a further test, the negative pressure at which EMG activity restarted was then determined. This threshold value was, if a test substance was effective, shifted to more positive values. The test was likewise conducted prior to the administration of the test substance and at certain intervals after the administration of the test substance. The test substance was administered by the nasal route. The results shown in the tables which follow were conducted with the compounds listed in Table 1 as Example 1, Example 3 and Example 4. Unless stated otherwise, the data were measured at a negative pressure of −100 mbar (corresponding to −100 cm water column (cm H2O)) on the upper airways. The active ingredients listed in Table 1 as Example 1, Example 3 and Example 4 were dissolved in the various formulations listed in Table 2 below and administered in an amount of 0 μg, 3 μg, 10 μg, 30 μg or 100 μg per pig. The active ingredient formulation or the pure vehicle was each administered with a pipette at a volume of 400 μl in each nostril. The duration of action in this pig model is defined as the time [min] in which a collapse of the upper airways was not observed in any animal, as a mean value of the specified number of animals. A duration of action specified as “>” X min signifies that the experiment was terminated at X min and up to this point a collapse of the upper airways was still not observed in any animal",
  "note": "Marks after values point to notes of the source that are not given here.",
  "data": [
    {"molecule": "O=C(C1CCCC1)N1CCN(Cc2c(-c3ccc(Br)cc3)nc3ccccn23)CC1", "note": "[Example 1, (4-{[2-(4-bromophenyl)imidazo[1,2-a]pyridin-3-yl]methyl}piperazin-1-yl)(cyclopentyl)methanone]", "values": [
      {"measurement": "Duration of action, mean value", "setting": "Formulation 1 (0% PEG400), 10 μg nasal, reduced pressure -50 mbar", "result": 150, "unit": "min"},
      {"measurement": "Duration of action, mean value", "setting": "Formulation 1 (0% PEG400), 10 μg nasal, reduced pressure -100 mbar", "result": 120, "unit": "min"},
      {"measurement": "Duration of action, mean value", "setting": "Formulation 3 (20% w/v PEG400), 10 μg nasal, reduced pressure -50 mbar", "result": ">210", "unit": "min"},
      {"measurement": "Duration of action, mean value", "setting": "Formulation 3 (20% w/v PEG400), 10 μg nasal, reduced pressure -100 mbar", "result": 180, "unit": "min"}
    ]},
    {"molecule": "COc1cccc(C(=O)N2CCN(Cc3c(-c4ccc(Cl)cc4)nc4ccccn34)CC2)n1", "note": "[Example 3, (4-{[2-(4-chlorophenyl)imidazo[1,2-a]pyridin-3-yl]methyl}piperazin-1-yl)(6-methoxypyridin-2-yl)methanone]", "values": [
      {"measurement": "Duration of action, mean value", "setting": "Formulation 1 (phosphate buffer pH 7/polysorbate 80 90/10, 0% PEG400), 3 μg nasal per pig, -100 mbar", "result": 150, "unit": "min"},
      {"measurement": "Duration of action, mean value", "setting": "Formulation 1 (phosphate buffer pH 7/polysorbate 80 90/10, 0% PEG400), 30 μg nasal per pig, -100 mbar", "result": "180* min"},
      {"measurement": "Duration of action, mean value", "setting": "Formulation 2 (100% w/v PEG400), 3 μg nasal, -100 mbar", "result": ">240", "unit": "min"},
      {"measurement": "Duration of action, mean value", "setting": "Formulation 3 (phosphate buffer pH 7/polysorbate 80/PEG400 70/10/20), 3 μg nasal per pig, -100 mbar", "result": 180, "unit": "min"},
      {"measurement": "Duration of action, mean value", "setting": "Formulation 3 (phosphate buffer pH 7/polysorbate 80/PEG400 70/10/20), 30 μg nasal per pig, -100 mbar", "result": 300, "unit": "min"},
      {"measurement": "Duration of action, mean value", "setting": "Formulation 4 (5% w/v PEG400, 10% polysorbate 80, 85% phosphate buffer pH 7), 3 μg nasal, -100 mbar", "result": 180, "unit": "min"},
      {"measurement": "Duration of action, mean value", "setting": "Formulation 5 (2.5% w/v PEG400, 10% polysorbate 80, 87.5% phosphate buffer pH 7), 3 μg nasal, -100 mbar", "result": 150, "unit": "min"},
      {"measurement": "Duration of action, mean value", "setting": "Formulation 6 (20% w/v PEG400, 2.5% w/v glycerol 85%, 10% polysorbate 80, 67.5% phosphate buffer pH 7), 3 μg nasal, -100 mbar", "result": 240, "unit": "min"},
      {"measurement": "Duration of action, mean value", "setting": "Formulation 7 (20% w/v propylene glycol, 10% polysorbate 80, 70% phosphate buffer pH 7), 30 μg nasal, -100 mbar", "result": 180, "unit": "min"},
      {"measurement": "Duration of action, mean value", "setting": "Formulation 9 (1.25% w/v Na-CMC, 10% polysorbate 80, 88.75% phosphate buffer pH 7, no PEG), 3 μg nasal, -100 mbar", "result": 120, "unit": "min"}
    ]},
    {"molecule": "O=C(c1ccccc1F)N1CCN(Cc2c(-c3ccc(Br)cc3)nc3ccccn23)CC1", "note": "[Example 4, (4-{[2-(4-bromophenyl)imidazo[1,2-a]pyridin-3-yl]methyl}piperazin-1-yl)(2-fluorophenyl)methanone]", "values": [
      {"measurement": "Duration of action, mean value", "setting": "Formulation 1 (0% PEG400), 100 μg nasal, reduced pressure -50 mbar", "result": 180, "unit": "min"},
      {"measurement": "Duration of action, mean value", "setting": "Formulation 1 (0% PEG400), 100 μg nasal, reduced pressure -100 mbar", "result": 180, "unit": "min"},
      {"measurement": "Duration of action, mean value", "setting": "Formulation 3 (20% w/v PEG400), 100 μg nasal, reduced pressure -50 mbar", "result": ">210", "unit": "min"},
      {"measurement": "Duration of action, mean value", "setting": "Formulation 3 (20% w/v PEG400), 100 μg nasal, reduced pressure -100 mbar", "result": 180, "unit": "min"}
    ]}
  ]
}
